Results on 1 compound are retold here after patent publication US5807869A, “Quinoline derivatives, their production and use” (Takeda Chemical Industries, Ltd., priority 1995, dated 1998).

This assay concerns the target T1, human GnRH receptor (Homo sapiens, UniProt P30968).
T1 construct: expressed in transfected cells; host or cells: CHO (Chinese Hamster Ovary) cells
T1 sequence (P30968 1-328): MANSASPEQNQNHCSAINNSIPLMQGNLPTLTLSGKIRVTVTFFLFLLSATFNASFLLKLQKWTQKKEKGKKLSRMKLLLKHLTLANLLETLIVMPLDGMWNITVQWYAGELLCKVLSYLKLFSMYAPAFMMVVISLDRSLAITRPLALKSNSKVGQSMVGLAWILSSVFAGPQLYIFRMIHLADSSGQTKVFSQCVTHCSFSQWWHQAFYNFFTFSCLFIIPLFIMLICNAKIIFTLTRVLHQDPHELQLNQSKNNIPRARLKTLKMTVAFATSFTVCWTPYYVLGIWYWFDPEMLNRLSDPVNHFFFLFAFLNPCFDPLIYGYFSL
The experiment in a line: 125I-leuprorelin binding inhibition, membrane fraction of CHO cells expressing human GnRH receptors. The settings on record: CHO cell membrane fraction, 25° C., 60 minutes, Hill plot, read-out: 125I-leuprorelin binding inhibitory rate IC50 value.

SMILES strings stand for the structures. Structures can show the parent of a compound that is named as a salt.

Take `CCOC(=O)c1cn(Cc2c(F)cccc2F)c2cc(-c3ccc(NC(=O)CC)cc3)c(CN(C)Cc3ccccc3)cc2c1=O` [Example 3, 6-(N-benzyl-N-methylaminomethyl)-1,4-dihydro-1-(2,6-difluorobenzyl)-7-(4-propionylaminophenyl)-4-oxoquinoline-3-carboxylic acid ethyl ester hydrochloride]: the IC50 worked out at 0.05 µM.
